{
  "source": "patent US10222390B2",
  "about": "“Near-infrared fluorescent sensors for biological amines” (The Curators of the University of Missouri, priority 2015, dated 2019)",
  "key": {"[1]": {"test": "Spectral characteristics of sensors (absorption, emission, Stokes shift)", "format": "physicochemical", "procedure": "(§1) NeuroSensor 715 was screened with various relevant amines via absorption and fluorescence spectroscopy. Steady-state fluorescence spectroscopic studies were performed using a Horiba Scientific Fluorolog-3 Model FL3C-111 spectrofluorometer and data was collected and analyzed using HJY FluorEssence™ 3.5.1.20 software package. UV-visible spectra were recorded on a Varian Cary 1E UV-visible spectrophotometer at 37° C.\n(§2) A 1 mg/mL stock solution of NeuroSensor 715 in DMSO was prepared. A stock solution of NeuroSensor 715 and derivatives in buffer (2×10^−5 M, 25 mM HEPES, 50 mM Na2S2O3, pH 5.0) was prepared. Serotonin, norepinephrine, dopamine, and glutamate stock solutions were prepared by separately dissolving the analytes at the concentration to be used in the titrations with the buffered stock solution of NeuroSensor 715 (thus avoiding dilution of NeuroSensor 715 during the experiment). NeuroSensor 715 was titrated with aliquots of the analyte solution. NeuroSensor 715 derivatives were excited at 559 nm. The slit width was 10 nm for both excitation and emission."}, "[2]": {"settings": "in vitro; cited from earlier work"}, "[3]": {"test": "Fluorescence/absorbance titration of NS715 with serotonin", "format": "binding", "procedure": "as §1, §2\nNeuroSensor 715 binds to all primary amines via iminium ion formation, which produces a red shift in absorption from 500 to 546 nm (FIG. 6 (A)). In fluorescence mode, exciting the unbound NeuroSensor 715 at 559 nm provided fluorescence emission at 686 nm. In fluorescence mode, exciting the bound complex at 559 nm upon adding serotonin produced a marked 8.0-fold fluorescence enhancement at […] (FIG. 6 (B))."}, "[4]": {"test": "Fluorescence/absorbance titration of NS715 with dopamine", "format": "binding", "procedure": "as §1, §2"}, "[5]": {"test": "Fluorescence/absorbance titration of NS715 with norepinephrine", "format": "binding", "procedure": "as §1, §2"}, "[6]": {"test": "Fluorescence/absorbance titration of NS715 with glutamate", "format": "binding", "procedure": "as §1, §2"}, "[7]": {"test": "Interaction of NS715 with epinephrine in vitro", "format": "binding"}, "[8]": {"tested_on": "norepinephrine-enriched chromaffin cells", "test": "Confocal imaging of norepinephrine-enriched chromaffin cells incubated with NS715", "format": "cell-based", "settings": "NS715 10 μM", "procedure": "(§3) NS715 binds to norepinephrine and strongly fluoresces, but not to epinephrine because it is a secondary-amine neurotransmitter. Both populations of cells were incubated with NS715 (10 μM), washed, and subsequently imaged using confocal microscopy. The unbound UV λmax=500 nm and the bound UV λmax=546 nm. The unbound sensor emits at 686 nm and the bound sensor emits at 715 nm. Excitation wavelengths of 458 nm and 633 nm were used to preferentially excite the unbound and bound forms of NS715. Emission for all excitation wavelengths was measured using 650 nm-710 nm bandpass filter."}, "[9]": {"tested_on": "epinephrine-enriched chromaffin cells", "test": "Confocal imaging of epinephrine-enriched chromaffin cells incubated with NS715", "format": "cell-based", "settings": "NS715 10 μM", "procedure": "as §3"}, "[10]": {"settings": "sensor saturated with primary amine analyte (bound)"}, "[11]": {"settings": "thiophene in place of benzene moiety on NeuroSensor 521 platform"}, "[12]": {"settings": "intensity at saturation from fit"}, "[13]": {"settings": "λex = 559 nm, λem = 780 nm, buffer pH 5.0, error ±10%"}},
  "note": "Values joined by “and” are separate entries in the source; they are usually repeats but may differ in a detail not shown here. Equal entries are not always repeated.",
  "data": [
    {"molecule": "CCN(CC)c1ccc2c(-c3cccs3)c(C=O)c(=O)oc2c1", "values": [
      {"measurement": "Stokes shift", "setting": "[1]; [10]", "result": 37, "unit": "nm"},
      {"measurement": "λabs", "setting": "[1]; [10]", "result": 502, "unit": "nm"},
      {"measurement": "λem", "setting": "[1]; [10]", "result": 539, "unit": "nm"},
      {"measurement": "bathochromic shift in absorbance", "setting": "[1]; [11]", "result": 10, "unit": "nm"},
      {"measurement": "bathochromic shift in fluorescence emission", "setting": "[1]; [11]", "result": 17, "unit": "nm"},
      {"measurement": "Stokes shift", "setting": "[1]; unbound sensor", "result": 60, "unit": "nm"},
      {"measurement": "λabs", "setting": "[1]; unbound sensor", "result": 462, "unit": "nm"},
      {"measurement": "λem", "setting": "[1]; unbound sensor", "result": 522, "unit": "nm"}
    ]},
    {"molecule": "CCN(CC)c1ccc2c(-c3ccc(OC)cc3)c(C=O)c(=O)oc2c1", "note": "[NS521]", "values": [
      {"measurement": "fluorescence response upon interaction with serotonin", "setting": "[2]", "result": "fluorescence quenching"}
    ]},
    {"molecule": "CCN1CCN(CC)c2cc3c(-c4cccs4)c(C=O)c(=O)oc3cc21", "note": "[NS715]", "values": [
      {"measurement": "higher binding constant for serotonin compared to glutamate", "setting": "[3]; serotonin vs glutamate, listed as NeuroSensor 715", "result": "19 fold and 18 fold"},
      {"measurement": "fluorescence enhancement", "setting": "[3]; serotonin, at 715 nm", "result": 8.0, "unit": "fold"},
      {"measurement": "fluorescence enhancement", "setting": "[3]; serotonin, excited at 559 nm, measured at 780 nm", "result": 8.0, "unit": "fold"},
      {"measurement": "Isat/I0", "setting": "[3]; serotonin, fluorescence intensity at saturation from fit to binding isotherm", "result": 8.0},
      {"measurement": "Ka", "setting": "[3]; serotonin, fluorescence spectroscopy, λex = 559 nm, λem = 780 nm, buffer pH 5.0, error ±10%", "result": 409, "unit": "M⁻¹"},
      {"measurement": "fluorescence enhancement", "setting": "[4]", "result": 3.4, "unit": "fold"},
      {"measurement": "Isat/I0", "setting": "[4]; [12]", "result": 4.0},
      {"measurement": "Ka", "setting": "[4]; [13]", "result": 145, "unit": "M⁻¹"},
      {"measurement": "fluorescence enhancement", "setting": "[5]; norepinephrine", "result": 3.0, "unit": "fold"},
      {"measurement": "higher binding constants of catecholamines compared to glutamate", "setting": "[5]; norepinephrine and dopamine on average vs glutamate", "result": 6.0, "unit": "fold"},
      {"measurement": "Isat/I0", "setting": "[5]; norepinephrine, intensity at saturation from fit", "result": 3.4},
      {"measurement": "Ka", "setting": "[5]; norepinephrine, λex = 559 nm, λem = 780 nm, buffer pH 5.0, error ±10%", "result": 129, "unit": "M⁻¹"},
      {"measurement": "fluorescence enhancement", "setting": "[6]", "result": 3.0, "unit": "fold"},
      {"measurement": "Isat/I0", "setting": "[6]; [12]", "result": 3.0},
      {"measurement": "Ka", "setting": "[6]; [13]", "result": 22.3, "unit": "M⁻¹"},
      {"measurement": "modulation of absorption or fluorescence spectrum upon interaction with epinephrine", "setting": "[7]", "result": "no modulation in the absorption or fluorescence spectrum"},
      {"measurement": "average fluorescence intensity of norepinephrine-enriched cells relative to epinephrine-enriched cells", "setting": "[8]", "result": 15, "unit": "fold"},
      {"measurement": "fluorescence when excited at 633 nm", "setting": "[8]; norepinephrine-enriched cells", "result": "punctate pattern with strong fluorescence"},
      {"measurement": "average fluorescence intensity", "setting": "[8]; norepinephrine-enriched cells, 650-710 nm bandpass, n=20", "result": "12.42±1.75"},
      {"measurement": "fluorescence when excited at 633 nm", "setting": "[9]", "result": "marginal fluorescence"},
      {"measurement": "average fluorescence intensity", "setting": "[9]; 650-710 nm bandpass, n=20", "result": "0.85±0.29"},
      {"measurement": "increase of Stokes shift compared to thiophene-based NeuroSensor 521 derivative", "setting": "[1]; both unbound and bound complex", "result": "over 125 nm"},
      {"measurement": "Stokes shift", "setting": "[1]; [10]", "result": 169, "unit": "nm"},
      {"measurement": "λabs", "setting": "[1]; [10]", "result": 546, "unit": "nm"},
      {"measurement": "λem", "setting": "[1]; [10]", "result": 715, "unit": "nm"},
      {"measurement": "λabs", "setting": "[1]; unbound sensor", "result": 500, "unit": "nm"},
      {"measurement": "λem", "setting": "[1]; unbound sensor", "result": 686, "unit": "nm"},
      {"measurement": "Stokes shift", "setting": "[1]; unbound sensor, listed as NeuroSensor 715", "result": 186, "unit": "nm"}
    ]},
    {"molecule": "CCN(CC)c1ccc2c(-c3ccccc3)c(C=O)c(=O)oc2c1", "note": "[benzene-based NeuroSensor 521 derivative]", "values": [
      {"measurement": "Stokes shift", "setting": "[1]; [10]", "result": 32, "unit": "nm"},
      {"measurement": "λabs", "setting": "[1]; [10]", "result": 488, "unit": "nm"},
      {"measurement": "λem", "setting": "[1]; [10]", "result": 520, "unit": "nm"},
      {"measurement": "Stokes shift", "setting": "[1]; unbound sensor", "result": 53, "unit": "nm"},
      {"measurement": "λabs", "setting": "[1]; unbound sensor", "result": 452, "unit": "nm"},
      {"measurement": "λem", "setting": "[1]; unbound sensor", "result": 505, "unit": "nm"}
    ]}
  ]
}
